Patent US20020026053A1, “Novel 3-(substituted) -2- indolinones compounds and use thereof as inhibitors of protein kinase activity” (priority 1997, published 2002)
Values joined by “and” are separate entries in the source; they are usually repeats but may differ in a detail not shown here. Equal entries are not always repeated.

The molecules below were run on PDGF-R (assay: PDGF-R Assay (cellular ELISA, U1242 cells)).
Type: cell-based
Set-up: concentration or dose not given beside the values
Method: The cellular/catalytic assays described herein are performed in an ELISA format. The general procedure is as follows: a compound is introduced to cells expressing the test kinase, either naturally or recombinantly, for a selected period of time after which, if the test kinase is a receptor, a ligand known to activate the receptor is added. The cells are lysed and the lysate is transferred to the wells of an ELISA plate previously coated with a specific antibody recognizing the substrate of the enzymatic phosphorylation reaction. Non-substrate components of the cell lysate are washed away and the amount of phosphorylation on the substrate is detected with an antibody specifically recognizing phosphotyrosine compared with control cells that were not contacted with a test compound.
All cell culture media, glutamine, and fetal bovine serum can be purchased from Gibco Life Technologies (Grand Island, N.Y.) unless otherwise specified. All cells are grown in a humid atmosphere of 90-95% air and 5-10% CO2 at 37° C. All cell lines are routinely subcultured twice a week and are negative for mycoplasma as determined by the Mycotect method (Gibco).
For ELISA assays, cells (U1242, obtained from Joseph Schlessinger, NYU) are grown to 80-90% confluency in growth medium (MEM with 10% FBS, NEAA, 1 mM NaPyr and 2 mM GLN) and seeded in 96-well tissue culture plates in 0.5% serum at 25,000 to 30,000 cells per well. After overnight incubation in 0.5% serum-containing medium, cells are changed to serum-free medium and treated with test compound for 2 hr in a 5% CO2, 37° C. incubator. Cells are then stimulated with ligand for 5-10 minute followed by lysis with HNTG (20 mM Hepes, 150 mM NaCl, 10% glycerol, 5 mM EDTA, 5 mM Na3VO4, 0.2% Triton X-100, and 2 mM NaPyr). Cell lysates (0.5 mg/well in PBS) are transferred to ELISA plates previously coated with receptor-specific antibody and which had been blocked with 5% milk in TBST (50 mM Tris-HCl pH 7.2, 150 mM NaCl and 0.1% Triton X-100) at room temperature for 30 min. Lysates are incubated with shaking for 1 hour at room temperature. The plates are washed with TBST four times and then incubated with polyclonal anti-phosphotyrosine antibody at room temperature for 30 minutes. Excess anti-phosphotyrosine antibody is removed by rinsing the plate with TBST four times. Goat anti-rabbit IgG antibody is added to the ELISA plate for 30 min at room temperature followed by rinsing with TBST four more times. ABTS (100 mM citric acid, 250 mM Na2HPO4 and 0.5 mg/mL 2,2′-azino-bis (3-ethylbenzthiazoline-6-sulfonic acid)) plus H2O2 ([…] 30% H2O2 to 10 ml ABTS) is added to the ELISA plates to start color development. Absorbance at 410 nm with a reference wavelength of 630 nm is recorded about 15 to 30 min after ABTS addition.

| SMILES | PDGF Kinase % Inhibition (P.119) |
| --- | --- |
| Cc1c(Br)cc(Br)c2c1C(=Cc1ccc(C#N)cc1)C(=O)N2 [10727/H09] | −11.7% |
| Cc1c(Br)cc(Br)c2c1C(=Cc1c[nH]c(=O)[nH]c1=O)C(=O)N2 [10731/H08] | −10.1% |
| Cc1c(Br)cc(Br)c2c1C(=CC1C=CCCC1)C(=O)N2 (stereo not drawn) [10729/H11] | 5.0% |
| CCc1ccc(C=C2C(=O)Nc3c(Br)cc(Br)c(C)c32)s1 [10726/H10] | 6.9% |
| Cc1ccsc1C=C1C(=O)Nc2c(Br)cc(Br)c(C)c21 [10729/H05] | −27.6% |
| COc1cc(N(C)C)ccc1C=C1C(=O)Nc2c(Br)cc(Br)c(C)c21 [10728/H05] | −10.6% and −5.3% |
| Cc1c(Br)cc(Br)c2c1C(=Cc1ccc(-c3ccccc3Cl)o1)C(=O)N2 [10730/H07] | 0.6% |
| Cc1cc(C=C2C(=O)Nc3c(Br)cc(Br)c(C)c32)oc1C [10730/H11] | 9.4% |
| Cc1c(Br)cc(Br)c2c1C(=Cc1cc(Cl)cc(Br)c1O)C(=O)N2 [10727/H04] | 13.7% |
| COc1c(O)ccc(C=C2C(=O)Nc3c(Br)cc(Br)c(C)c32)c1[N+](=O)[O-] [10733/H11] | −4.8% |
| COc1cccc(C=C2C(=O)Nc3c(Br)cc(Br)c(C)c32)c1OC [10727/H11] | 2.8% |
| COc1cc(C=C2C(=O)Nc3c(Br)cc(Br)c(C)c32)cc(OC)c1OC [10730/H04] | −1.2% |
| CC(=O)n1cc(C=C2C(=O)Nc3c(Br)cc(Br)c(C)c32)c2ccccc21 [10730/H05] | 22.1% |
| COc1c(C(C)(C)C)cc(C=C2C(=O)Nc3c(Br)cc(Br)c(C)c32)cc1C(C)(C)C [10733/H04] | −14.5% |
| Cc1c(Br)cc(Br)c2c1C(=Cc1cc(C(C)C)c(Oc3ccccc3)c(C(C)C)c1)C(=O)N2 [10732/H04] | 14.4% |
| Cc1c(Br)cc(Br)c2c1C(=Cc1ccc(N3CCCC3)cc1)C(=O)N2 [10729/H10] | −1.5% |
| COc1c(C)cc(C=C2C(=O)Nc3c(Br)cc(Br)c(C)c32)cc1C [10733/H06] | −12.9% |
| Cc1ccc2occ(C=C3C(=O)Nc4c(Br)cc(Br)c(C)c43)c(=O)c2c1 [10731/H06] | −5.4% |
| COc1c([N+](=O)[O-])cc(C=C2C(=O)Nc3c(Br)cc(Br)c(C)c32)cc1C(C)(C)C [10733/H03] | 16.8% |

| SMILES | PDGF Kinase % Inhibition (P.119) |
| --- | --- |
| COc1cc(C=C2C(=O)Nc3c(Br)cc(Br)c(C)c32)cc2c1OCO2 [10728/H11] | −16.8% |
| COc1cc(C=C2C(=O)Nc3c(Br)cc(Br)c(C)c32)cc(OC)c1 [10728/H04] | −5.7% |
| Cc1c(Br)cc(Br)c2c1C(=Cc1cc3ccccc3nc1Cl)C(=O)N2 [10730/H08] | 6.3% |
| COc1ccc(C=C2C(=O)Nc3c(Br)cc(Br)c(C)c32)c(OC)c1OC [10730/H02] | 1.0% |
| Cc1c(Br)cc(Br)c2c1C(=Cc1ccccc1OCC(=O)O)C(=O)N2 [10728/H10] | 4.5% |
| Cc1c(Br)cc(Br)c2c1C(=Cc1ccccc1Sc1ccc(Cl)cc1)C(=O)N2 [10727/H05] | −28.5% |
| COc1cc(Br)cc(C=C2C(=O)Nc3c(Br)cc(Br)c(C)c32)c1O [10733/H08] | −15.3% |
| Cc1c(Br)cc(Br)c2c1C(=Cc1cc(O)ccc1O)C(=O)N2 [10727/H10] | 10.1% |
| Cc1c(Br)cc(Br)c2c1C(=Cc1coc3ccc(C(C)C)cc3c1=O)C(=O)N2 [10731/H05] | −1.6% |
| Cc1c(Br)cc(Br)c2c1C(=Cc1cccc(Oc3ccccc3)c1)C(=O)N2 [10729/H06] | −12.1% |
| Cc1c(Br)cc(Br)c2c1C(=Cc1ccc3c(c1)Cc1ccccc1-3)C(=O)N2 [10728/H06] | −25.7% |
| COc1c(Cl)cc(C=C2C(=O)Nc3c(Br)cc(Br)c(C)c32)cc1C(C)(C)C [10732/H09] | −14.4% |
| Cc1c(Br)cc(Br)c2c1C(=Cc1cc(I)c(OCc3ccccc3)c(C(C)(C)C)c1)C(=O)N2 [10733/H02] | −5.6% |
| Cc1c(Br)cc(Br)c2c1C(=Cc1cc(Br)c(OCc3ccccc3)c(C(C)(C)C)c1)C(=O)N2 [10732/H08] | 7.8% |
| Cc1c(Br)cc(Br)c2c1C(=Cc1cc(Cl)c(OCc3ccccc3)c(C(C)(C)C)c1)C(=O)N2 [10732/H10] | −21.0% |
| COc1cc(OC)c(OC)cc1C=C1C(=O)Nc2c(Br)cc(Br)c(C)c21 [10730/H03] | −11.7% |
| COC1CC(C=C2C(=O)Nc3c(Br)cc(Br)c(C)c32)C(OC)O1 (stereo not drawn) [10730/H10] | 23.0% |
| COc1ccc(OC)c(C=C2C(=O)Nc3c(Br)cc(Br)c(C)c32)c1 [10728/H02] | −9.3% |
| Cc1c(Br)cc(Br)c2c1C(=Cc1cc([N+](=O)[O-])ccc1O)C(=O)N2 [10733/H10] | 10.7% |

| SMILES | PDGF Kinase % Inhibition (P.119) |
| --- | --- |
| COc1ccc(C=C2C(=O)Nc3c(Br)cc(Br)c(C)c32)cc1 [10726/H11] | −0.1% |
| COc1ccc2ccccc2c1C=C1C(=O)Nc2c(Br)cc(Br)c(C)c21 [10729/H02] | 2.3% |
| Cc1c(Br)cc(Br)c2c1C(=Cc1cc3c(cc1Cl)OCO3)C(=O)N2 [10727/H06] | −40.8% |
| Cc1c(Br)cc(Br)c2c1C(=Cc1ccc(Br)o1)C(=O)N2 [10726/H05] | −38.0% |
| Cc1c(Br)cc(Br)c2c1C(=Cc1c(F)cccc1C(F)(F)F)C(=O)N2 [10728/H09] | −6.2% |
| Cc1c(Br)cc(Br)c2c1C(=Cc1coc3ccc([N+](=O)[O-])cc3c1=O)C(=O)N2 [10731/H07] | 36.5% |
| Cc1c(Br)cc(Br)c2c1C(=CC(c1cccs1)C(F)(F)F)C(=O)N2 (stereo not drawn) [10732/H02] | 6.8% |
| COc1c(I)cc(C=C2C(=O)Nc3c(Br)cc(Br)c(C)c32)cc1C(C)(C)C [10732/H11] | −16.0% |
| COc1c(C(C)C)cc(C=C2C(=O)Nc3c(Br)cc(Br)c(C)c32)cc1C(C)C [10732/H03] | −1.8% |
| Cc1c(Br)cc(Br)c2c1C(=Cc1cccc(C#N)c1)C(=O)N2 [10727/H08] | −27.0% |
| CSc1ccc(C=C2C(=O)Nc3c(Br)cc(Br)c(C)c32)cc1 [10729/H04] | −5.6% |
| Cc1c(Br)cc(Br)c2c1C(=Cc1cc(C(C)(C)C)c(OCc3ccccc3)c(C(C)(C)C)c1)C(=O)N2 [10733/H05] | −15.3% |
| Cc1cc2occ(C=C3C(=O)Nc4c(Br)cc(Br)c(C)c43)c(=O)c2cc1C [10731/H03] | 1.8% |
| Cc1c(Br)cc(Br)c2c1C(=Cc1cccnc1)C(=O)N2 [10729/H08] | −1.5% |
| Cc1c(Br)cc(Br)c2c1C(=Cc1cc(O)c3c(c1O)CCCC3)C(=O)N2 [10726/H07] | −30.4% |
| Cc1c(Br)cc(Br)c2c1C(=Cc1cccc(C(F)(F)F)c1F)C(=O)N2 [10728/H07] | −1.7% |
| Cc1c(Br)cc(Br)c2c1C(=Cc1ccccn1)C(=O)N2 [10729/H07] | −43.1% |
| Cc1c(Br)cc(Br)c2c1C(=C1C(=O)Nc3ccccc31)C(=O)N2 [10726/H09] | 15.1% |
| CCn1c2ccccc2c2cc(C=C3C(=O)Nc4c(Br)cc(Br)c(C)c43)ccc21 [10731/H02] | −18.7% |
